Several values for one entry are separate records, joined by “and”; a condition that tells them apart may be missing. Identical values can stand only once. Like-named read-outs stand apart in the source and are kept apart here. Values belong to the molecule of their own block, whether it stands above or below them.
Assays:
[1] = molecular target: T1, human TPST1 (Homo sapiens, UniProt O60507); assay: EZ Reader II microfluidic mobility-shift CC4-tide sulfation assay, TPST1; assay type: biochemical; details: for inhibition at 20 µM: read-out: TPST1 enzyme inhibition, PKIS screen; for Sensitivity of TPST1 inhibition to the concentration of PAPS: increasing PAPS, fixed 20 µM PAP or 100 µM ATP, CoA, dephospho-CoA; for IC50 / TPST1 inhibition at 400 μM: 10 µM PAPS; for TPST1 inhibition at 400 μM: Fig 8A, inhibitor 400 µM
T1 construct: human TPST1 (residues Lys43–Leu360) and TPST2 (residues Gly43–Leu359) enzymes lacking the transmembrane domains; made in house; host or cells: E. coli BL21 (DE3) pLysS
T1 sequence (O60507 43-360): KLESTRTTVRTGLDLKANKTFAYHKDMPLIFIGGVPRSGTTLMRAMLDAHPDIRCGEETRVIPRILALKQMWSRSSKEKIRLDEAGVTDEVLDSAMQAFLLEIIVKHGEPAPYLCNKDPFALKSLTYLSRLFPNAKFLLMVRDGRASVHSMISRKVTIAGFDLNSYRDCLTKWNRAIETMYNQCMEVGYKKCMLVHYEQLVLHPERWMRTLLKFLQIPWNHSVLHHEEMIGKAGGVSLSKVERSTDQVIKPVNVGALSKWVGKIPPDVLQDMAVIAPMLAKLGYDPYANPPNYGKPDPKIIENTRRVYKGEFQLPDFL

[2] = molecular target: T1, human TPST1; assay: Differential scanning fluorimetry (thermal shift) assay with TPST1; assay type: binding; details: TPST1 5 µM; for Thermal shift of TPST1 (in words) / ΔTm TPST1 / Thermal shift of TPST1 in the presence of Mg2+ ions (in words): DSF; for Thermal shift of TPST1 (in words) / ΔTm TPST1: 0.5 mM nucleotide; for Thermal shift of TPST1 (in words): panel of nucleotide-based cofactors; for ΔTm TPST1: relative to buffer control; for Thermal shift of TPST1 in the presence of Mg2+ ions (in words): 0.5 mM nucleotide + 10 mM MgCl2
[3] = molecular target: T2, human TPST2 (Homo sapiens, UniProt O60704); assay: Differential scanning fluorimetry (thermal shift) assay with TPST2; assay type: binding; details: DSF, TPST2 5 µM; for Thermal shift of TPST2 (in words): panel of nucleotide-based cofactors; for Thermal shift of TPST2 in the presence of Mg2+ ions (in words): 0.5 mM nucleotide + 10 mM MgCl2
T2 construct: TPST2 (residues Gly43–Leu359) enzymes lacking the transmembrane domains; made in house; host or cells: E. coli BL21 (DE3) pLysS
T2 sequence (O60704 43-359): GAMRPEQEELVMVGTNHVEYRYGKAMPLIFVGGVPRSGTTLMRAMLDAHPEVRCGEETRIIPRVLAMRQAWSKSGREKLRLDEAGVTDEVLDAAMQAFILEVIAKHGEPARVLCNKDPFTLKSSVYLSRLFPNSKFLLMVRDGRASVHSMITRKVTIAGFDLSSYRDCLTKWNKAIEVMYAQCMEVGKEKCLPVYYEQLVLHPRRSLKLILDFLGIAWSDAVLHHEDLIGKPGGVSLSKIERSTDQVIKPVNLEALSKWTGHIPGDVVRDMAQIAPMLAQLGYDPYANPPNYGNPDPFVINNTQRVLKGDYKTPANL

[4] = tested on: heparin sulfate 2-O sulfotransferase HS2ST; parameters: method as in PMID 29934491; details: cited from earlier work
[5] = molecular target: T1, human TPST1; assay: GST-CC4-tide tyrosine sulfation by TPST1, immunoblotting with monoclonal sulfotyrosine antibody; assay type: biochemical; details: for Inhibition of GST-CC4-tide tyrosine sulfation by TPST1 (immunoblot, in words): GST-CC4-tide 1 µg, 10 µM PAPS, increasing concentrations of inhibitor
Procedure: After the assay, proteins were denatured in Laemmli sample buffer, heated at 95°C for 5 min and then analysed by SDS–PAGE with 10% (v/v) polyacrylamide gels. Gels were stained and destained using a standard Coomassie Brilliant Blue protocol. To evaluate protein sulfation and phosphorylation by immunoblotting, standard western blotting procedures were followed using monoclonal anti-sulfotyrosine antibody clone Sulfo-1C-A2 (Millipore) generated using a phage display procedure and sulfotyrosine selection peptide antigens in the presence of appropriate positive and negative controls, and modifications visualised using the ECL reagent.

[6] = tested on: TPST1; details: read-out: Km for PAPS, TPST1, literature reports; cited from earlier work
[7] = tested on: TPST2; details: cited from earlier work
[8] = substrate: Nc1ncnc2c1ncn2C1OC(COP(=O)(O)OS(=O)(=O)O)C(OP(=O)(O)O)C1O; assay: EZ Reader II microfluidic mobility-shift CC4-tide sulfation assay, TPST1; assay type: biochemical, human; details: other: CC4-tide 2 µM, TPST1 0.1 µM, four independent experiments; pH 7.4
[9] = Fig 5A, CC4-tide, 0.1 µM TPST1, absence of MgCl2, read-out: IC50 TPST1, panel of nucleotides
[10] = Fig 7C, TPST1 0.1 µM, CC4-tide, 30 min at 37°C, duplicate, read-out: TPST1 estimated IC50, PKIS inhibitors
[11] = Fig 8B, TPST1 0.1 µM pre-incubated with compound, read-out: TPST1 estimated IC50, RAF kinase inhibitors

inhibition at 20 µM [1]: > 40%
Molecule: Cc1cc(-c2ccco2)cc(C)c1/C=C/c1cncc(-c2nn[nH]n2)c1 [GW458344A]

Sensitivity of TPST1 inhibition to the concentration of PAPS ([1]; CC4-tide): highly sensitive
IC50 [1, 9]: 1.5 µM
Thermal shift of TPST1 (in words) [2]: marked stabilisation
ΔTm TPST1 [2]: ~10 °C
Thermal shift of TPST2 (in words) ([3]; 0.5 mM nucleotide): marked stabilisation
Molecule: Nc1ncnc2c1ncn2C1OC(COP(=O)(O)O)C(OP(=O)(O)O)C1O (centres unmarked) [PAP, adenosine 3′–5′-diphosphate]

Sensitivity of TPST1 inhibition to the concentration of PAPS ([1]; CC4-tide): largely insensitive
IC50 [1, 9]: 166 µM
Thermal shift of TPST1 (in words) [2]: unable to induce thermal shifts
Thermal shift of TPST2 (in words) ([3]; 0.5 mM nucleotide): unable to induce thermal shifts
Molecule: CC(C)(COP(=O)(O)OP(=O)(O)OC[C@H]1O[C@@H](n2cnc3c(N)ncnc32)[C@H](O)[C@@H]1O)[C@@H](O)C(=O)NCCC(=O)NCCS [dephospho-CoA, 3′-dephosphoCoA]

TPST1 inhibition at 400 μM ([1]; TPST1 0.1 µM, duplicate): essentially complete TPST1 inhibition
IC50 [1, 11]: 253 µM
Molecule: Cc1ccc(NC(=O)c2cccc(N(C)C)c2)cc1NC(=O)c1ccc(O)cc1 [ZM336372]

Inhibition of GST-CC4-tide tyrosine sulfation by TPST1 (immunoblot, in words) [5]: dose-dependent inhibition
TPST1 inhibition at 400 μM ([1]; TPST1 0.1 µM, duplicate): essentially complete TPST1 inhibition
IC50 [1, 11]: 6.5 µM
Molecule: Cn1c(Nc2ccc(C(F)(F)F)cc2)nc2cc(Oc3ccnc(-c4ncc(C(F)(F)F)[nH]4)c3)ccc21 [RAF265]
Mode of TPST1 inhibition with respect to PAPS (immunoblot densitometry) ([5]; GST-CC4-tide, increasing PAPS concentration): partially competitive mode of inhibition with PAPS
HS2ST inhibition in vitro (in words) [4]: did not inhibit HS2ST at any concentration tested

TPST1 inhibition at 400 μM ([1]; TPST1 0.1 µM, duplicate): essentially complete TPST1 inhibition
IC50 [1, 11]: 42.9 µM and ~40 µM
Molecule: CCCS(=O)(=O)Nc1ccc(F)c(C(=O)c2c[nH]c3ncc(-c4ccc(Cl)cc4)cc23)c1F [Vemurafenib, vemurafenib]

Thermal shift of TPST1 (in words) [2]: marked stabilisation
Thermal shift of TPST2 (in words) ([3]; 0.5 mM nucleotide): marked stabilisation
Molecule: CC(=O)SCCNC(=O)CCNC(=O)[C@H](O)C(C)(C)COP(=O)(O)OP(=O)(O)OC[C@H]1O[C@@H](n2cnc3c(N)ncnc32)[C@H](O)[C@@H]1OP(=O)(O)O [acetyl CoA]

TPST1 inhibition at 400 μM ([1]; TPST1 0.1 µM, duplicate): essentially complete TPST1 inhibition
IC50 [1, 11]: 119 µM
Molecule: CNC(=O)c1cc(Oc2ccc(NC(=O)Nc3ccc(Cl)c(C(F)(F)F)c3)cc2)ccn1 [Sorafenib, sorafenib]

IC50 [1, 11]: > 400 µM
Molecule: CCCS(=O)(=O)Nc1ccc(F)c(C(=O)c2c[nH]c3ncc(Cl)cc23)c1F [PLX-4720]

ΔTm TPST1 [2]: ~3 °C
ΔTm TPST2 ([3]; 0.5 mM nucleotide, relative to buffer control): ~9 °C
Molecule: Nc1ncnc2c1ncn2C1OC(COP(=O)(O)OS(=O)(=O)O)C(OP(=O)(O)O)C1O (centres unmarked) [PAPS, adenosine 3′-phosphate 5′-phosphosulfate]
Km [6]: 2 to 5 µM
Km ([7]; read-out: Km for PAPS, TPST2 obtained from transfected CHO cell medium): 12 µM
Km ([7]; read-out: Km for PAPS, recombinant TPST2 isolated from baculovirus-infected insect cells): ~5 µM

Further lines, the molecule ahead of its results:

Molecule: COC(=O)c1ccc2c(c1)C(=Cc1cc(Br)c(O)c(Br)c1)C(=O)N2 [GW405841X]
IC50 [1, 10]: > 40 µM

Molecule: CC(C)(COP(=O)(O)OP(=O)(O)OC[C@H]1O[C@@H](n2cnc3c(N)ncnc32)[C@H](O)[C@@H]1OP(=O)(O)O)[C@@H](O)C(=O)NCCC(=O)NCCS [CoA, coenzyme A]
Sensitivity of TPST1 inhibition to the concentration of PAPS ([1]; CC4-tide): highly sensitive
IC50 [1, 9]: 87 µM and 87.3 µM
Thermal shift of TPST1 (in words) [2]: marked stabilisation
ΔTm TPST1 [2]: ~11 °C
Thermal shift of TPST2 (in words) ([3]; 0.5 mM nucleotide): marked stabilisation

Molecule: Nc1ncnc2c1ncn2[C@@H]1O[C@H](COP(=O)(O)O)[C@@H](O)[C@H]1O [AMP, adenosine 5′-monophosphate]
Thermal shift of TPST1 (in words) [2]: lack of significant thermal shift
Thermal shift of TPST2 (in words) ([3]; 0.5 mM nucleotide): lack of significant thermal shift

Molecule: Nc1nc2c(ncn2[C@@H]2O[C@H](COP(=O)(O)OP(=O)(O)OP(=O)(O)O)[C@@H](O)[C@H]2O)c(=O)[nH]1 [GTP, guanosine 5′-triphosphate]
Thermal shift of TPST1 in the presence of Mg2+ ions (in words) [2]: abolished
Thermal shift of TPST1 (in words) [2]: marked stabilisation
Thermal shift of TPST2 in the presence of Mg2+ ions (in words) [3]: abolished
Thermal shift of TPST2 (in words) ([3]; 0.5 mM nucleotide): marked stabilisation

Molecule: O=C1Nc2ccc(-c3cccnc3)cc2C1=Cc1cc(Br)c(O)c(Br)c1 [GW429374A]
IC50 [1, 10]: 9.8 µM

Molecule: O=C1Nc2ccc(C(=O)c3ccco3)cc2C1=Cc1cc(Cl)c(O)c(Cl)c1 [GW406108X]
IC50 [1, 10]: 16 µM
TPST1 DSF screen of PKIS, rank of hit ([2]; 20 µM compound, 4% DMSO, hit cut-off ΔTm ± 0.5°C): top compound

Molecule: Cc1ccc(C(=O)Nc2ccc(S(=O)(=O)O)c3cc(S(=O)(=O)O)cc(S(=O)(=O)O)c23)cc1NC(=O)c1cccc(NC(=O)Nc2cccc(C(=O)Nc3cc(C(=O)Nc4ccc(S(=O)(=O)O)c5cc(S(=O)(=O)O)cc(S(=O)(=O)O)c45)ccc3C)c2)c1 [Suramin, suramin]
HS2ST inhibition in vitro (in words) [4]: inhibitory activity

Molecule: Nc1nc(-c2ccc3c(c2)C(=Cc2cc(Br)c(O)c(Br)c2)C(=O)N3)cs1 [GW407323A]
IC50 [1, 10]: 6 µM

Molecule: CNC(=O)c1cncc(/C=C/c2ccccc2C)c1 [GW445015X]
inhibition at 20 µM [1]: > 40%

Molecule: Nc1ncnc2c1ncn2[C@@H]1O[C@H](COP(=O)(O)OP(=O)(O)O)[C@@H](O)[C@H]1O [ADP, adenosine 5′-diphosphate]
Thermal shift of TPST1 in the presence of Mg2+ ions (in words) [2]: abolished
Thermal shift of TPST1 (in words) [2]: marked stabilisation
Thermal shift of TPST2 in the presence of Mg2+ ions (in words) [3]: abolished
Thermal shift of TPST2 (in words) ([3]; 0.5 mM nucleotide): marked stabilisation

Molecule: CNC(=O)c1cncc(/C=C/c2ccccc2Cl)c1 [GW445017X]
inhibition at 20 µM [1]: > 40%

Molecule: O=C1Nc2ccc(I)cc2C1=Cc1cc(Br)c(O)c(Br)c1 [GW305074X]
Inhibition of GST-CC4-tide tyrosine sulfation by TPST1 (immunoblot, in words) [5]: low-micromolar inhibitor
IC50 [1, 10]: ~5 µM

Molecule: O=C(O)C1=CC(=C(c2ccc(O)c(C(=O)O)c2)c2ccc(O)c(C(=O)O)c2)C=CC1=O [Aurintricarboxylic acid, aurintricarboxylic acid]
HS2ST inhibition in vitro (in words) [4]: inhibitory activity

Molecule: CC(C)(C)c1nc(-c2cccc(NS(=O)(=O)c3c(F)cccc3F)c2F)c(-c2ccnc(N)n2)s1 [Dabrafenib, dabrafenib]
TPST1 inhibition at 400 μM ([1]; TPST1 0.1 µM, duplicate): essentially complete TPST1 inhibition
IC50 [1, 11]: 269 µM

Molecule: Nc1ncnc2c1ncn2[C@@H]1O[C@H](COP(=O)(O)OP(=O)(O)OP(=O)(O)O)[C@@H](O)[C@H]1O [ATP, adenosine 5′-triphosphate]
IC50 [1, 9]: 379 µM

B1: human TPST1 (Homo sapiens) (protein)
chain: T1 sequence (O60507 43-360)
notes: human TPST1 (residues Lys43–Leu360) and TPST2 (residues Gly43–Leu359) enzymes lacking the transmembrane domains; made in house; host or cells: E. coli BL21 (DE3) pLysS
Km [8]: 6.6 ± 1.9 µM

Reference: article PMC6094398, “New tools for evaluating protein tyrosine sulfation: tyrosylprotein sulfotransferases (TPSTs) are novel targets for RAF protein kinase inhibitors” (Biochemical Journal, 2018)
